The text below walks through data of patent US20250367283A1, “MEVALONATE PATHWAY INHIBITOR AS HIGHLY-EFFICIENT VACCINE ADJUVANT” (Tsinghua University, priority 2015, published 2025).

Like-named read-outs stand apart in the source and are kept apart here.

One test relates to PR8 influenza virus. Put plainly: PR8 influenza virus challenge after HA1 immunization. In kind it is in vivo, mice. The settings on record: 20 micrograms adjuvant with 5 micrograms HA1, intramuscular. The method, then:
Method: 5 micrograms of hemagglutinin protein (HA1) in the PR8 influenza virus was added to phosphate buffer, 20 micrograms of simvastatin, 20 micrograms of TH-Z80, 20 micrograms of TH-Z93 and 20 micrograms of TH-Z145, respectively. And mice were injected intramuscularly for immunization on day 0, day 14 and day 21. Nasal mucosa of mice was inoculated with PR8 virus on day 28. And then the weight of the mice was weighed daily and the death of the mice was observed.

The target of test [1] is humanized farnesyl pyrophosphate synthase (HsFPPS) (Homo sapiens (Human), UniProt P14324). Put plainly: In vitro HsFPPS enzyme activity assay. The format is biochemical. The method, then:
The measurement method is briefly described as follows: the expression of HsFPPS with 6 consecutive His at the N-terminus was induced in vitro, collected, and purified by Ni column. An in vitro HsFPPS enzyme activity assay was performed in a 96-well plate with 200 μl of solution per well. The buffer of the system was 25 mM HEPES, 2.5 mM MgCl2, pH 7.4. Using DMAPP and IPP as reaction substrates, the change of the UV value at a wavelength of 360 nm was monitored in real time in a phosphate lyase system. The ORIGIN 8.0 software was used to plot and fit. The IC50 values for the inhibition of FPPS by the TH-Z80 series of compounds were shown in the following table, in micromoles per liter (μM).
HsFPPs with 6 consecutive His at the N-terminus was induced to express in vitro, collected, and purified by Ni column. In vitro HsFPPs enzymatic activity assay was performed in a 96-well plate at 200 μl of solution per well. The buffer of the system was 25 mM HEPES, 2.5 mM MgCl2, pH 7.4. Using DMAPP and IPP as reaction substrates, the changes of UV at 360 nm were monitored in real-time in phosphate lyase system. ORIGIN 8.0 software was used to plot and fit.

The test system of test [2] is PvGGPPS (geranylgeranyl pyrophosphate synthase from Plasmodium). Nature of the test: In vitro PvGGPPS enzymatic activity assay. The format is biochemical. The settings on record: GPP and IPP substrates. The method, then: PvGGPPs with 6 consecutive His at the N-terminus was induced to express in vitro, collected, and purified by Ni column. In vitro PvGGPPs enzymatic activity assay was performed in a 96-well plate at 200 μl of solution per well. The buffer of the system was 25 mM HEPES, 2.5 mM MgCl2, pH 7.4. Using GPP and IPP as reaction substrates, a 360 nm continuous spectrophotometric detection was performed in a phosphate lyase system. ORIGIN 8.0 software was used to plot and fit.

Another test has as its system Vγ9Vδ2 T cells. Put plainly: Expansion of Vγ9Vδ2 T cells from PBMCs. In kind it is cell-based, human. The settings on record: 4 μM bisphosphonate, 200 U/mL rIL-2, day 12. The method, then: Human peripheral blood mononuclear cells (PBMCs) were prepared from healthy volunteers by Ficoll-Hypaque density gradient centrifugation. […] Cells were harvested on day 12 and stained with FITC-anti-CD3 (Miltenyi Biotec) and PE-anti-[…] (Miltenyi Biotec) monoclonal antibodies. Flow cytometry was used for detection. Prism 5.0 was used to analyze the data.

The next test concerns anti-OVA serum antibody. Put plainly: OVA immunization with bisphosphonates (Example 15), serum antibody titer. The settings on record: 100 μg, intramuscular, 14 days. The format is in vivo, mice. The method, then: During the immunization, the antigen we used was ovalbumin (OVA). Mice were c57bl/6 female mice at the age of 8 weeks. OVA was formulated at a concentration of 1 mg/ml and bisphosphonate concentration was 1 mg/ml. OVA and bisphosphonates were mixed at a ratio of 1:1 at the time of immunization. Mice were injected intramuscularly with […]. 100 μg of OVA and 100 μg of bisphosphonate per mouse. 14 days after immunization, 100 μl of orbital blood was taken from each mouse.
The whole blood which had been obtained was placed in a 4° C. freezer overnight. The next day, the whole blood at 4° C. was centrifuged at a speed of 6000 rpm at a temperature of 4° C. for 5 minutes. After the centrifugation, the upper serum was carefully taken out and centrifuged again at a speed of 6000 rpm at a temperature of 4° C. for 5 minutes. The upper serum was taken again. Serum was frozen and stored at-20° C. and thawed when tested.
1. Coating: antigen OVA was diluted to a protein content of 2 μg/ml with 0.05M pH 9.6 carbonate coating buffer. Each reaction well of a polystyrene plate was coated with 50 μl of the solution overnight at 4° C. or 2 h at 37° C. […]
7. On an ELISA detector, the OD value was read at 490 nm. Titers of serum antibody were calculated. Serum dilutions were calculated as titers of serum antibody based on an OD value greater than or equal to 1.5 times of the reading of the negative control well.

Test [3] addresses HsGGPPS (humanized geranylgeranyl pyrophosphate synthase) (Homo sapiens (Human), UniProt O95749). Nature of the test: HsGGPPS enzyme inhibition test. In kind it is biochemical. The method, then:
The inhibitory activities of compounds TH-Z144 and TH-Z145 on GGPPS (geranylgeranyl pyrophosphate synthase) were tested by referring to the expression and purification method for HsGGPPS (humanized geranylgeranyl pyrophosphate synthase) in the reference (Szabo, C. M., et al., Inhibition of Geranylgeranyl Diphosphate Synthase by Bisphosphonates and Diphosphates: A Potential Route to New Bone Antiresorption and Antiparasitic Agents. Journal of Medicinal Chemistry, 2002. 45 (11): p. 2185-2196.) and the method for testing enzyme activity in the reference (Zhang, Y., et al., Lipophilic Bisphosphonates as Dual Farnesyl/Geranylgeranyl Diphosphate Synthase Inhibitors: An X-ray and NMR Investigation. Journal of the American Chemical Society, 2009. 131 (14): p. 5153-5162.) The data of the activity test were as follows: […]

Setting [4] is: Example 15 table, read-out: HsFPPS (IC50/μM).
The mark [5] stands for this setting: TH-Z80 series, DMAPP and IPP substrates, pH 7.4, read-out: IC50 for inhibition of FPPS.

humanized farnesyl pyrophosphate synthase (HsFPPS), sequence (P14324 whole entry, looked up): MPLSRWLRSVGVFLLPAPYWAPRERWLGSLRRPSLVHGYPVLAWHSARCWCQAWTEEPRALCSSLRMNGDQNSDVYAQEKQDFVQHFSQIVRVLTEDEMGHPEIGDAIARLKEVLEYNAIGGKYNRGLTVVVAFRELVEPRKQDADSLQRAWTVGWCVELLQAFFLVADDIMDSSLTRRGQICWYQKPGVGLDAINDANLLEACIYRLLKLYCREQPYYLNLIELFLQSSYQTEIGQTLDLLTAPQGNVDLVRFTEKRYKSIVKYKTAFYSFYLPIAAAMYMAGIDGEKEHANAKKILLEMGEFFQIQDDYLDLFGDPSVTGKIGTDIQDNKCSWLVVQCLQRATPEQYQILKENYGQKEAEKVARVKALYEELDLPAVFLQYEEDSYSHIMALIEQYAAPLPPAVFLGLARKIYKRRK
HsGGPPS (humanized geranylgeranyl pyrophosphate synthase), sequence (O95749 whole entry, looked up): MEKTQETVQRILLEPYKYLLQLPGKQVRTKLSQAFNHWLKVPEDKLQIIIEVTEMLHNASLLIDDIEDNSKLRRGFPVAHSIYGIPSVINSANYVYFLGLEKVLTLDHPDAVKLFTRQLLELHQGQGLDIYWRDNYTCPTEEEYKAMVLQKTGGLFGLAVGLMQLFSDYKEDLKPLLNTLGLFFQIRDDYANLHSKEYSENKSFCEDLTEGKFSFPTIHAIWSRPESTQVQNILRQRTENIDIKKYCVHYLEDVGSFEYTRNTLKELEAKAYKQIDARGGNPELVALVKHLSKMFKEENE

As for `CCC(C)(C)C(=O)O[C@H]1C[C@@H](C)C=C2C=C[C@H](C)[C@H](CC[C@@H]3C[C@@H](O)CC(=O)O3)[C@H]21` [simvastatin, reference compound], the “body weight and death after PR8 virus inoculation” value (from here on “body weight and death”) with PR8 influenza virus is “did not lose weight nor died”.

As for `CCCCCCCOc1ccc2c(c1)ncn2CC(O)(P(=O)(O)O)P(=O)(O)O` [TH-Z152], the IC50 in test [1] (setting [4]) turned out to be 0.14 µM; in test [1] (setting [5]), 0.14 µM; in test [2] it was 0.95 µM.

Regarding `CCCCCCCCCOc1ccc2c(c1)ncn2CC(O)(P(=O)(O)O)P(=O)(O)O` [TH-Z153], the IC50 in test [1] (setting [4]) worked out at 4.9 µM; in test [1] (setting [5]) it was 4.9 µM; in test [2] it was 1.09 µM.

As for `CCCCCCOc1ccc2c(c1)ncn2CC(O)(P(=O)(O)O)P(=O)(O)O` [TH-Z80], the IC50 was 0.11 µM in test [1] (setting [4]), 0.11 µM in test [1] (setting [5]) and 0.37 µM in test [2]. Besides, in the test on Vγ9Vδ2 T cells, the “amplification effect on Vγ9Vδ2 T cells” value is reported as “best amplification effect on Vγ9Vδ2 T cells”. In the test with PR8 influenza virus, the “body weight and death” value is recorded as “did not lose weight nor died”. Further, the “antibody titers vs conventional bisphosphonates” value with anti-OVA serum antibody is “higher titers of antibodies than conventional bisphosphonates”.

As for “(2-(3-(octyloxy)phenyl)ethane-1,1-diyl)bisphosphonic acid [TH-Z145]”, the “IC50 (inhibition of GGPPS)” value in test [3] is “effectively inhibit the activity of GGPPS”. Further, the IC50 in test [3] (read-out: IC50 (inhibition of GGPPS)) came out at 660 nM. Also, in the test with PR8 influenza virus, the “body weight and death” value is “did not lose weight nor died”.

For `CCCCCCCCOc1ccc2c(c1)ncn2CC(O)(P(=O)(O)O)P(=O)(O)O` [TH-Z81], the IC50 in test [1] (setting [4]) was 0.48 µM; in test [1] (setting [5]), 0.48 µM; in test [2], 2.07 µM. The “adjuvant effect by carbon chain length of the side chain” value in the test on anti-OVA serum antibody is on record as “strongest effect as an adjuvant”.

As for `CCCCCCOc1ccnc(NC(P(=O)(O)O)P(=O)(O)O)c1` [TH-Z93, (((4-(hexyloxy)pyridin-2-yl)amino)methylene)bisphosphonic acid], the IC50 in test [1] (o-aminopyridine bisphosphonic acid compounds, read-out: IC50 (inhibition of FPPS)) turned out to be 0.1 µM. Further, in the test with PR8 influenza virus, the “body weight and death” value is recorded as “did not lose weight nor died”.
